Reference: patent US20240253023A1, “PERFLUORINATED AMIDE SALTS AND THEIR USES AS IONIC CONDUCTING MATERIALS” (priority 1996, published 2024)
Counter-ions that a name gives are not always drawn. Each block holds one molecule with its values, some of them ahead of it.

Assays:
[1] = solubility in organic solvents and polymers; conditions: for solubility in organic solvents: organic solvents (tetrahydrofurane, acetonitrile, dimethylformamide, ethyl acetate, glymes ...), mostly also in aprotic solvating or polar polymers
[2] = ionic conductivity of salts and polyelectrolytes in polymer, liquid, gel or molten media; type: physicochemical
[3] = oxidation potential towards a lithium anode; type: physicochemical
[4] = acid form; cited from earlier work
[5] = cationic transport number of electrolytes; type: physicochemical; conditions: in poly (ethylene oxide)
[6] = reversible redox potential in poly (ethylene oxide) on a platinum electrode, towards a lithium electrode; type: physicochemical; conditions: platinum electrode 125 μm
Experimental: These salts have a reversible redox couple. In poly (ethylene oxide) a reversible potential≈3.4 V towards a lithium electrode was determined on a platinum electrode having a diameter of 125 μm.
This salt has two reversible redox couples. In poly (ethylene oxide), on a platinum electrode of a diameter of 125 μm, it was shown that there is a first redox couple having a potential≈3.2 V and a second redox couple having a potential≈3.8 V, these potentials being measured towards a lithium electrode.

[7] = in poly (ethylene oxide), O/Li 12/1, 60° C.

- solubility in low polar solvents ([1]; dichloromethane or methylene chloride, polymer matrices with low polarity such as methyl polymethacrylate): very soluble in low polar solvents
Molecule: CCCCC(CC)CN(CC(CC)CCCC)S(=O)(=O)[N-]S(=O)(=O)C(F)(F)F.CCN1C(=CC=CC=CC=Cc2sc3ccccc3[n+]2CC)Sc2ccccc21 [3,3′-diethylthiatricarbocyanine of di-2-ethylhexylaminosulfonyl(trifluoro-methanesulfonyl)imide]

Molecule: O=S(=O)(CC(F)(F)F)[N-]S(=O)(=O)C(F)(F)F.[Li+] [Example 9, lithium salt of trifluoromethanesulfonyl(2,2,2-trifluoroethane-sulfonyl) imide]
- conductivity [2, 7]: 2.3×10^−4 S·cm^−1

Molecule: CN(C)S(=O)(=O)[N-]S(=O)(=O)C(F)(F)F.CN(C)S(=O)(=O)[N-]S(=O)(=O)C(F)(F)F.CN(C)S(=O)(=O)[N-]S(=O)(=O)C(F)(F)F.[La+3] [Example 30, lanthanum salt of trifluoromethanesulfonyl(dimethylaminosulfonyl)-imide]
- solubility in organic solvents [1]: highly soluble in the usual organic solvents

Molecule: O=S(=O)(Nc1nnc(C(F)(F)F)s1)C(F)(F)F [Example 34, trifluoromethanesulfonyl(5-trifluoromethyl-1,3,4 thiadiazole)amide]
- oxidation potential ([3]; 1 M in ethylene carbonate and dimethylcarbonate (2:1)): higher than 4 V
- solubility in organic solvents [1]: soluble in most usual organic solvents

Molecule: O=S(=O)([N-]S(=O)(=O)C(F)(F)F)c1nnc(C(F)(F)F)s1.[Li+] [Example 35, lithium salt of trifluoromethanesulfonyl(5-trifluoromethyl-1,3,4-thiadiazole-5-sulfonyl)imide]
- oxidation potential ([3]; 0.5 M in acetonitrile): higher than 4.5 V
- solubility in organic solvents [1]: soluble in most usual organic solvents

Molecule: O=S(=O)(NS(=O)(=O)C(F)(F)F)OC(C(F)(F)F)C(F)(F)F [Example 37 molten salt, trifluoromethanesulfonyl(1,1,1,3,3,3-hexafluoro-2-propanoxysulfonyl)imide 1-ethyl-3-methyl-1H-imidazolium]
- conductivity ([2]; neat molten salt, temperature not stated): 3.91×10^−3 S·cm^−1

Molecule: CN(C)c1cccc2c(S(=O)(=O)[N-]S(=O)(=O)C(F)(F)F)cccc12.[K+] [Example 53, potassium trifluoromethane-sulfonyl(5-dimethylamino-1-naphthalenesulfonyl)imide]
- solubility in organic solvents [1]: soluble in most polar organic solvents

Molecule: O=S(=O)(CCc1c2ccccc2cc2ccccc12)[N-]S(=O)(=O)C(F)(F)F.[K+] [Example 56, potassium salt of trifluoromethanesulfonyl(anthracenyl-9-ethanesulfonyl)imide]
- solubility in organic solvents [1]: soluble in most usual organic solvents

Molecule: O=S(=O)(NS(=O)(=O)C(F)(F)F)C(F)(F)F [H[CF3SO2—N—SO2CF3]]
- pKa [4]: 1.95

- solubility in dichloromethane ([1]; dichloromethane): good solubility in dichloromethane
Molecule: CCN(CC)S(=O)(=O)[N-]S(=O)(=O)C(F)(F)F.CCN(CC)S(=O)(=O)[N-]S(=O)(=O)C(F)(F)F.CCN(CC)S(=O)(=O)[N-]S(=O)(=O)C(F)(F)F.[Yb+3] [Yb(DETFSI)3, ytterbium salt of diethylaminosulfonyl(trifluoromethanesulfonyl)imide]

Molecule: CCCN(CCC)S(=O)(=O)[N-]S(=O)(=O)C(F)(F)F.[Li+] [lithium salt of trifluoromethanesulfonyl(dipropylaminosulfonyl)-imide]
- conductivity ([2]; in poly (ethylene oxide), O/Li=12/1, temperature not stated): 1.4×10^−4 S·cm^−1
- cationic transport number ([5]; O/Li=12/1): 0.42

- cationic transport number ([5]; O/Li=16/1): about 0.55
Molecule: CCCCCCCCCCCCS(=O)(=O)[N-]S(=O)(=O)C(F)(F)F.[Li+] [lithium salt of trifluoromethanesulfonyl(dodecylsulfonyl)imide]

Molecule: CN(C)S(=O)(=O)[N-]S(=O)(=O)C(F)(F)F.[Li+] [lithium salt of trifluoromethanesulfonyl-(dimethylaminosulfonyl)imide]
- conductivity [2, 7]: 1.2×10^−4 S·cm^−1

Molecule: CN(C)S(=O)(=O)[N-]S(=O)(=O)C(F)(F)F.[K+] [potassium salt of trifluoromethanesulfonyl-(dimethylaminosulfonyl)irnide]
- conductivity ([2]; in poly (ethylene oxide), O/K=12/1, 60° C.): 5.10^−4 S·cm^−1

Molecule: N-trifluoromethanesulfonyl-2-aminoacridine tetraethylammonium [Example 54]
- solubility in organic solvents [1]: soluble in most usual organic solvents

Molecule: di-lithium salt of 9-10-(propylsulfonamide-N-trifluoromethanesulfonyl)phenazine [Example 61]
- potential of first redox couple [6]: ≈ 3.2 V
- potential of second redox couple [6]: ≈ 3.8 V

Molecule: potassium salt of N,N′,N″,N′″-perfluorobutanesulfonyl-Nickel(II) phtalocyaninetetrasulfonamide [Example 57]
- solubility in organic solvents [1]: soluble in most usual organic solvents
